Experimental data: PubChem BioAssay (NCI)
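The compound was tested at five concentrations on cells cultured in 96-well plates, with a 48-hour exposure period. TGI marks complete inhibition of growth.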

What was measured:
Test in all cases: NCI tumour cell line growth inhibition, 48 h
[1] = test system: M14 melanoma
[2] = test system: MDA-MB-435
[3] = test system: RXF 393 renal
[4] = test system: NCI-H226 lung
[5] = test system: OVCAR-5 ovarian
[6] = test system: MOLT-4 leukemia
[7] = test system: CAKI-1 renal
[8] = test system: A498 renal
[9] = test system: MCF7 breast
[10] = test system: NCI/ADR-RES ovarian
[11] = test system: T-47D breast
[12] = test system: LOX IMVI melanoma
[13] = test system: SF-268 CNS
[14] = test system: HCT-116 colon
[15] = test system: SW-620 colon
[16] = test system: OVCAR-4 ovarian
[17] = test system: OVCAR-8 ovarian
[18] = test system: NCI-H460 lung
[19] = test system: HCT-15 colon
[20] = test system: ACHN renal
[21] = test system: OVCAR-3 ovarian
[22] = test system: SNB-75 CNS
[23] = test system: RPMI-8226 leukemia
[24] = test system: HS 578T breast
[25] = test system: UACC-257 melanoma
[26] = test system: MDA-N
[27] = test system: MALME-3M melanoma
[28] = test system: SNB-19 CNS
[29] = test system: K-562 leukemia
[30] = test system: UO-31 renal
[31] = test system: SN12C renal
[32] = test system: SK-MEL-28 melanoma
[33] = test system: SK-OV-3 ovarian
[34] = test system: SK-MEL-2 melanoma
[35] = test system: PC-3 prostate
[36] = test system: A549 NSCLC
[37] = test system: DU-145 prostate
[38] = test system: CCRF-CEM leukemia
[39] = test system: SF-295 CNS
[40] = test system: 786-0 renal
[41] = test system: SF-539 CNS
[42] = test system: U251 CNS
[43] = test system: KM12 colon
[44] = test system: HOP-62 NSCLC
[45] = test system: COLO 205 colon
[46] = test system: NCI-H23 lung
[47] = test system: UACC-62 melanoma
[48] = test system: BT-549 breast
[49] = test system: HCC-2998 colon
[50] = test system: EKVX NSCLC
[51] = test system: HT29 colon
[52] = test system: MDA-MB-231 breast
[53] = test system: IGROV1 ovarian
[54] = test system: NCI-H522 lung
[55] = test system: HOP-92 NSCLC
[56] = test system: HL-60(TB) leukemia
[57] = test system: SK-MEL-5 melanoma
[58] = test system: SR leukemia
[59] = test system: TK-10 renal

Measured: TGI

O=c1[nH]nc(Cc2ccccc2)n1/N=C/c1cccs1
63 µM: [8]
> 100 µM: [1] | [2] | [3] | [4] | [5] | [6] | [7] | [9] | [10] | [11] | [12] | [13] | [14] | [15] | [16] | [17] | [18] | [19] | [20] | [21] | [22] | [23] | [24] | [25] | [26] | [27] | [28] | [29] | [30] | [31] | [32] | [33] | [34] | [35] | [36] | [37] | [38] | [39] | [40] | [41] | [42] | [43] | [44] | [45] | [46] | [47] | [48] | [49] | [50] | [51] | [52]

CO/C(N)=C(\C#N)N=Cc1ccc2ccccc2c1
> 100 µM: [2] | [3] | [4] | [53] | [6] | [7] | [8] | [10] | [11] | [12] | [54] | [13] | [14] | [15] | [17] | [20] | [21] | [22] | [23] | [55] | [24] | [26] | [27] | [57] | [30] | [31] | [32] | [33] | [34] | [58] | [35] | [36] | [37] | [59] | [38] | [39] | [40] | [42] | [43] | [44] | [46] | [47] | [48] | [50] | [51] | [52]
15.6 µM: [56]
51.8 µM: [45]
91.3 µM: [25]
94.6 µM: [29]

C[C@]12C=CC(=O)C=C1CC[C@@H]1[C@@H]2CC[C@@]2(C)[C@H]1CC[C@]2(O)C(N)=O
> 100 µM: [1] | [2] | [3] | [4] | [53] | [5] | [6] | [8] | [10] | [11] | [12] | [54] | [13] | [14] | [15] | [16] | [17] | [18] | [19] | [20] | [21] | [22] | [23] | [55] | [24] | [25] | [26] | [27] | [56] | [28] | [57] | [29] | [30] | [31] | [32] | [33] | [34] | [58] | [35] | [36] | [37] | [59] | [38] | [39] | [40] | [41] | [42] | [43] | [44] | [45] | [46] | [47] | [48] | [49] | [50] | [51] | [52]

CC(C)(C)OC(=O)NC1CCCC1C(=O)C1=CCCC1 (centres undefined)
> 100 µM: [1] | [2] | [3] | [4] | [53] | [5] | [6] | [8] | [10] | [11] | [12] | [13] | [14] | [15] | [16] | [17] | [18] | [19] | [20] | [21] | [22] | [23] | [55] | [24] | [25] | [26] | [56] | [28] | [57] | [29] | [31] | [32] | [33] | [34] | [58] | [35] | [36] | [37] | [38] | [40] | [42] | [43] | [44] | [45] | [46] | [47] | [48] | [49] | [51] | [52]
